Assay results published in US20060148674A1, “Therapeutic composition” (priority 2004, published 2006).

What was measured:
alpha/beta IV = details: cited from earlier work
alpha/beta II = target: T1, alpha/beta II (Bos taurus, UniProt Q6B856); details: cited from earlier work
T1 construct: from tissue; host or cells: bovine cerebra

alpha/beta III = target: T2, alpha/beta III (Bos taurus, UniProt Q2T9S0); details: cited from earlier work
T2 construct: from tissue; host or cells: bovine brain (cerebra)
T2 sequence (Q2T9S0 whole entry): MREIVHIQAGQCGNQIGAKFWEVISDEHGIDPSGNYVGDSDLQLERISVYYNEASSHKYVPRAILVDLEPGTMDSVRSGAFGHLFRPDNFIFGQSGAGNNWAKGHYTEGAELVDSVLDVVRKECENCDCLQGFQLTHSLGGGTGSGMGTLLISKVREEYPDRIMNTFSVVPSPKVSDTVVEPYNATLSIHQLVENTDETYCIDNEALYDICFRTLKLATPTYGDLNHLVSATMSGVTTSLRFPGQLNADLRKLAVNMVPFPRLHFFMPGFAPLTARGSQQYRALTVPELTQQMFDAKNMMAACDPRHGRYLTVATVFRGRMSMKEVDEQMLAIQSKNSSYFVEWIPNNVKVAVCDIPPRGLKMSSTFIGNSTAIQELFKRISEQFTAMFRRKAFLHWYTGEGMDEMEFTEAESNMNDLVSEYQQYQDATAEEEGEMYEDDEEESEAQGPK
T2 sequence (P81947 whole entry partner): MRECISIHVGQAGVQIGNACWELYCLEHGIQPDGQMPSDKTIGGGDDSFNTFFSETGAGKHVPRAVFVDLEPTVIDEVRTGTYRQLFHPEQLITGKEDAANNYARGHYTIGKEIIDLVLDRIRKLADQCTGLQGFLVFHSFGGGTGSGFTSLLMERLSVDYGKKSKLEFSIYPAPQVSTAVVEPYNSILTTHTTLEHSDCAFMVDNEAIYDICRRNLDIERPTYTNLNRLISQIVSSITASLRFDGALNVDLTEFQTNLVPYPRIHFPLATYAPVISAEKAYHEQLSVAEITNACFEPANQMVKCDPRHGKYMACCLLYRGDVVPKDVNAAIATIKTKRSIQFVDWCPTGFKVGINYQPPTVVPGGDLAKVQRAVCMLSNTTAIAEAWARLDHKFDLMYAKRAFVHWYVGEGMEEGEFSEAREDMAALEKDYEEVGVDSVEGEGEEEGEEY

[1] = target: T3, thioredoxin reductase/thioredoxin (Homo sapiens, UniProt Q16881); details: cited from earlier work
T3 sequence (Q16881 1-499 isoform Q16881-5): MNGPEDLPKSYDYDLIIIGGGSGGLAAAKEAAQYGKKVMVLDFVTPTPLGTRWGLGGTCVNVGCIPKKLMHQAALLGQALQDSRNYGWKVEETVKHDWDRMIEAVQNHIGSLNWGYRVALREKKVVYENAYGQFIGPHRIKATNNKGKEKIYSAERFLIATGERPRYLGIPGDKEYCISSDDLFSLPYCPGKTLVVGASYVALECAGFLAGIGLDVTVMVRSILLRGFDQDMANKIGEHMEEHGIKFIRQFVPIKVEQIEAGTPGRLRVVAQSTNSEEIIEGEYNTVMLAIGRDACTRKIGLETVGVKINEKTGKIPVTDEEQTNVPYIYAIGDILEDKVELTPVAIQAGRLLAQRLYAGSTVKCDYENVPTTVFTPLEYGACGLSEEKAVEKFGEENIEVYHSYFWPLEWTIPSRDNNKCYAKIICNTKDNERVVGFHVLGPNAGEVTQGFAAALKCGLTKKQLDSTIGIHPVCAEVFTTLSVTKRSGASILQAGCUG

thioredoxin reductase = target: T4, thioredoxin reductase (Homo sapiens, UniProt Q16881); details: cited from earlier work
T4 sequence (Q16881 1-499 isoform Q16881-5): T3 sequence (Q16881 1-499 isoform Q16881-5)

[2] = 2.5 mg/kg, mice; cited from earlier work
[3] = target: T5, thioredoxin reductase and thioredoxin (Homo sapiens, UniProt P10599+Q16881); details: cited from earlier work
T5 sequence (Q16881 151-649 limits assumed): T3 sequence (Q16881 1-499 isoform Q16881-5)
T5 sequence (P10599 1-105): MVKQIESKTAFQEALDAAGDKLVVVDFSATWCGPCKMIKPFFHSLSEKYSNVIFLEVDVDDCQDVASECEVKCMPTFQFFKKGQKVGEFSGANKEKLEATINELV

erythrocyte tubulin = target: T6, erythrocyte tubulin (Gallus gallus, UniProt P09207); design: dose or concentration left out as unconfirmed; details: cited from earlier work
T6 construct: from tissue; host or cells: chicken erythrocytes
T6 sequence (P09207 whole entry): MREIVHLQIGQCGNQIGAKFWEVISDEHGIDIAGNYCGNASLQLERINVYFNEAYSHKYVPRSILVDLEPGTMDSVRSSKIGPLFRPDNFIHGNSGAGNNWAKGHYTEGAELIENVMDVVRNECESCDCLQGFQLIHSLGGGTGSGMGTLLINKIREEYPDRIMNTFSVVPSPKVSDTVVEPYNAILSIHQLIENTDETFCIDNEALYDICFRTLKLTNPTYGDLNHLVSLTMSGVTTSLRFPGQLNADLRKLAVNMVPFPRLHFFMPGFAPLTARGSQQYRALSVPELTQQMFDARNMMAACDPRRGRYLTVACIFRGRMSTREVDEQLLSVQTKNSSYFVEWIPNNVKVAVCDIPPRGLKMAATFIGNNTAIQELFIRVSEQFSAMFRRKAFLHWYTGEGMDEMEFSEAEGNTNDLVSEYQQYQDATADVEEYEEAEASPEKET

[4] = system: BT-549 breast cancer cell line; assay: drug resistance of breast cancer cell line; type: cell-based; details: BT-549 compared with MCF-7
brain tubulin = system: brain tubulin; design: dose or concentration left out as unconfirmed; details: cited from earlier work
alpha/beta III dimer = alpha/beta III dimer (Bos taurus, UniProt Q2T9S0); details: compared with alpha/beta II and alpha/beta IV dimers; cited from earlier work
alpha/beta III dimer, sequence (Q2T9S0 whole entry): as the sequence (Q2T9S0 whole entry) above
alpha/beta III dimer, sequence (P81947 whole entry partner, looked up): as the sequence (P81947 whole entry partner) above

[5] = system: human MCF-7 breast cancer; details: MCF-7 tumor system, scid mice; cited from earlier work
HL-60 leukemia = details: scid mice; a number of the animals without tumor at day 45; cited from earlier work
[6] = system: colon tumors of min mouse; details: in the diet at 250 ppm, cited from earlier work

T1 sequence (Q6B856 whole entry): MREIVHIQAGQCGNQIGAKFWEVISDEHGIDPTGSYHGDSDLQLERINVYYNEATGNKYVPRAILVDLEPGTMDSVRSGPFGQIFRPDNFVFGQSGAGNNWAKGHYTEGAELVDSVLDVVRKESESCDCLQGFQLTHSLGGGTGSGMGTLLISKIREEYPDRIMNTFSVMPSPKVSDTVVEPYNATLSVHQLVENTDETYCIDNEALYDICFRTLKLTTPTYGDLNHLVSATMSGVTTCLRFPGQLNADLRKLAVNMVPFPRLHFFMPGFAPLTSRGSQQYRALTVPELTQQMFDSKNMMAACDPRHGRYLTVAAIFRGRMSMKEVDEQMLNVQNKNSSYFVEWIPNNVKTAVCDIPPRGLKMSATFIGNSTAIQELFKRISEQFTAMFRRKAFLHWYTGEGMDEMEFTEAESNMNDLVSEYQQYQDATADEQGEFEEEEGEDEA
T1 sequence (P81947 whole entry partner): as the sequence (P81947 whole entry partner) above

Compound: COc1cc(OC)c(Cl)c(-n2c(-c3ccccc3)cc(=O)c(C)c2-c2ccc(F)cc2)c1 [IKP-104]
- apparent dissociation constant for the high-affinity site (Kd1) (alpha/beta IV): greater than those of unfractionated tubulin, alpha/beta II, or alpha/beta III
- apparent dissociation constant for the high-affinity site (Kd1) (alpha/beta II): lower than that of unfractionated tubulin
- apparent dissociation constant for the high-affinity site (Kd1) (alpha/beta III): lower than that of unfractionated tubulin

Compound: CCCCCCCC(=O)OC1C2C(CC1(C)C)C(=O)C13OC1C(=O)C1(CO1)C23C (centres unmarked) [NSC 163027]
- activity in the thioredoxin reductase/thioredoxin-dependent insulin assay [1]: active
- inhibition of thioredoxin reductase alone (thioredoxin reductase): did not inhibit thioredoxin reductase alone

Compound: CC1=C(CO)C2=C(C)C3(CC3)[C@@](C)(O)C(=O)C2=C1 [irofulven]
- tolerability [2]: tolerable
- inhibition of thioredoxin reductase and thioredoxin [3]: selectively inhibit both thioredoxin reductase and thioredoxin

Compound: CC[C@]1(O)C[C@@H]2CN(CCc3c([nH]c4ccccc34)[C@@](C(=O)OC)(c3cc4c(cc3OC)N(C)[C@H]3[C@@](O)(C(=O)OC)[C@H](OC(C)=O)[C@]5(CC)C=CCN6CC[C@]43[C@@H]65)C2)C1 [vinblastine]
- erythrocyte tubulin formed spirals (erythrocyte tubulin): 74%
- resistance of cell line to drug [4]: resistant
- brain tubulin aggregated into spirals (brain tubulin): About 42%

Compound: CC(=O)O[C@H]1C(=O)[C@@]2(C)[C@H]([C@H](OC(=O)c3ccccc3)[C@]3(O)C[C@H](OC(=O)[C@H](O)[C@@H](NC(=O)c4ccccc4)c4ccccc4)C(C)=C1C3(C)C)[C@]1(OC(C)=O)CO[C@@H]1C[C@@H]2O [paclitaxel]
- resistance of cell line to drug [4]: resistant
- interaction of alpha/beta III dimer with ligand (alpha/beta III dimer): much less strongly

Compound: O=[N+]([O-])C(=C(Sc1ccccc1)Sc1ccccc1)C(Cl)=C(Cl)Cl [NSC 665103]
- activity in the thioredoxin reductase/thioredoxin-dependent insulin assay [1]: active
- inhibition of thioredoxin reductase alone (thioredoxin reductase): did not inhibit thioredoxin reductase alone

Compound: c1ccc(CSSc2ncc[nH]2)cc1 [DLK-36, benzyl-2-imidazolyl disulfide]
- tumor inhibition [5]: 65%
- antitumor activity against HL-60 leukemia (HL-60 leukemia): showed antitumor activity

Compound: CCC(C)SSc1ncc[nH]1 (centres unmarked) [IV-2, 1-methylpropyl 2-imidazolyl disulfide]
- tumor inhibition [5]: 98%
- size of remaining tumors ([6]; p<0.001 compared to control): significant reduction
- reduction of the number of tumors in the colon ([6]; p=0.0160): 70%
- antitumor activity against HL-60 leukemia (HL-60 leukemia): showed antitumor activity

Compound: Cc1cccc2c1c1ccc3c(c1n2C)C(=O)C=CC3=O [NSC 645330]
- activity in the thioredoxin reductase/thioredoxin-dependent insulin assay [1]: active
- inhibition of thioredoxin reductase alone (thioredoxin reductase): did not inhibit thioredoxin reductase alone

Compound: cryptophycin
- resistance of cell line to drug [4]: resistant
